This note sets out measurements from US20250326769A1, “HETEROAROMATIC MACROCYCLIC ETHER CHEMOTHERAPEUTIC AGENTS” (Nuvalent, Inc., priority 2022, published 2025).

Where only a bound is given, the exact number is not on record here.

One test deals with ALK I1171N/D1203N (Homo sapiens (Human), UniProt Q9UM73, D1203N/I1171N). The experiment in a line: Biochemical kinase assay, ALK I1171N/D1203N. As to conditions: apparent inhibitory constant, kinase domain, Morrison equation; read-out: ALK-I1171N-D1203N Ki^app. On the procedure:
(§1) First, 250 nL of compound dissolved in DMSO (100-fold of the desired concentration) was dispensed into a 384-well plate. A 12.5 μL substrate solution containing ATP (2 mM) and fluorogenic phosphorylation substrate AQT0101 ([…] for ALK and ROS, AssayQuant) or AQT0104 (26 μM for TRKB, AssayQuant) in buffer (50 mM HEPES pH 7.5, […], 0.5 mM EGTA, 10 mM MgCl2) was added and mixed thoroughly. Then, a 12.5 μL kinase solution containing ALK (1.5 nM, Carna, 08-518), ALK I1171N/D1203N (4 nM, SignalChem, custom-made), ROS1 (0.6 nM, Carma, 08-163), ROS1-G2032R (0.5 nM, SignalChem, R14-121BG), or TRKB-wt (1.5 nM, SignalChem, N17-11G) kinase domains in buffer ([…] pH 7.5, 0.01% Brij-[…], 0.4 mg/mL BSA, 0.5 mM EGTA, and 10 mM MgCl2) was added and mixed thoroughly. The plate was sealed and read by SpectraMax Paradigm at λ=485 nm every 2 minutes for 120 minutes at 30° C. Initial rates of reaction (v) were calculated from the change in fluorescence intensity over time during the initial, linear portion of the reaction. Finally, apparent inhibitory constants (Ki^app) were determined from regression of v and I (inhibitor concentration) to Morrison Equation (E=enzyme concentration): […]
(§2) Compound potency can be interpreted by binning Ki^app values against the targets: bin A for high potency, Ki^app<50 nM; bin B for medium potency, 50 nM≤Ki^app<500 nM; and bin C for low potency, Ki^app≥500 nM. […] “nd” means not determined.

A further test concerns the target TRKB-wt (Homo sapiens (Human), UniProt Q16620). Put plainly: Biochemical kinase assay, TRKB-wt. As to conditions: apparent inhibitory constant, kinase domain, Morrison equation; read-out: TRKB-wt Ki^app. On the procedure: as §1, §2
In test [1] the target is Ba/F3 EML4-ALK v1 I1171N/D1203N (Homo sapiens (Human), UniProt Q9HC35+Q9UM73, D1203N/I1171N). Put plainly: Ba/F3 cell proliferation assay, EML4-ALK v1 I1171N/D1203N. Format: cell-based. As to conditions: for IC50: Ba/F3 stable cells, 72 hours, CellTiter-Glo. The essentials: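 Viability read by CellTiter-Glo luminescence after 72 h exposure to a 3-fold compound dilution series, with IC50 from four-parameter logistic regression. Cells were Ba/F3 rendered IL-3-independent through retroviral expression of EML4-ALK v1 I1171N/D1203N, puromycin-selected.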
Ba/F3 EML4-ALK v1 I1171N/D1203N, sequence (Q9UM73 other isoform, or with tags, fused parts or gaps I1171N/D1203N): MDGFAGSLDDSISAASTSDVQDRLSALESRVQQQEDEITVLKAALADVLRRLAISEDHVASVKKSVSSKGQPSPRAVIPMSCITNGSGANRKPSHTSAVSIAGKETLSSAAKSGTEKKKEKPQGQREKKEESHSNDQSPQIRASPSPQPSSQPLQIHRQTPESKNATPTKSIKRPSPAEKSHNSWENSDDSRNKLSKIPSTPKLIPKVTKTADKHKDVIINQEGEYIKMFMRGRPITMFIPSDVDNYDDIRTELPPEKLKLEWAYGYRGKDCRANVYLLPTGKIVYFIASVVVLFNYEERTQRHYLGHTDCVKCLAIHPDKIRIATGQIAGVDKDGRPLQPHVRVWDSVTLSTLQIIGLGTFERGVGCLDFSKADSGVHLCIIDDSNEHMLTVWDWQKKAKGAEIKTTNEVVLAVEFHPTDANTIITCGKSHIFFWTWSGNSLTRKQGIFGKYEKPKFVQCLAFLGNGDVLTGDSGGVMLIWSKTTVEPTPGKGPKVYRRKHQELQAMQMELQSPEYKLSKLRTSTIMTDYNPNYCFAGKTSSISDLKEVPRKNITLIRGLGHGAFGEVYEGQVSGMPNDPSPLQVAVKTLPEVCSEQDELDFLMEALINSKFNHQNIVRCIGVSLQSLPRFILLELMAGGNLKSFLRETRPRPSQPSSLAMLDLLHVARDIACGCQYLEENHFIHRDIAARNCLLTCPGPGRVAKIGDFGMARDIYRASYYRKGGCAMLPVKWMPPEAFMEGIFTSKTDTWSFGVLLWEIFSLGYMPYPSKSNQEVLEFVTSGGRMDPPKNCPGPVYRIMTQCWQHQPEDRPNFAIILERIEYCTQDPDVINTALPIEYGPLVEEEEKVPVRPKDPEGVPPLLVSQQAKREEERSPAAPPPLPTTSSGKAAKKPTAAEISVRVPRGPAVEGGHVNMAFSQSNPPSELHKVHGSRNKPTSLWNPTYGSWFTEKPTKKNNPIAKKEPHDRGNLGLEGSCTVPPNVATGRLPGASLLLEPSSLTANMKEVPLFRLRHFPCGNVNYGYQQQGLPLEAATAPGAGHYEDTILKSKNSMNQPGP
For orientation: In ATP-based viability assays light output follows the ATP content of the culture.

The target in the next test is Ba/F3 ETV6-TRKB (Homo sapiens, UniProt Q16620). Put plainly: Ba/F3 cell proliferation assay, ETV6-TRKB. The note with it: Ba/F3 stable cells, 72 hours, CellTiter-Glo; read-out: ETV6-TRKB IC50. Format: cell-based. The essentials: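 Growth inhibition after 72 h compound exposure (3-fold series) was measured by CellTiter-Glo in IL-3-independent Ba/F3 cells stably expressing ETV6-TRKB. A four-parameter logistic fit of percent inhibition versus concentration gave IC50.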
Ba/F3 ETV6-TRKB, sequence (Q16620 32-822 limits assumed, change not shown): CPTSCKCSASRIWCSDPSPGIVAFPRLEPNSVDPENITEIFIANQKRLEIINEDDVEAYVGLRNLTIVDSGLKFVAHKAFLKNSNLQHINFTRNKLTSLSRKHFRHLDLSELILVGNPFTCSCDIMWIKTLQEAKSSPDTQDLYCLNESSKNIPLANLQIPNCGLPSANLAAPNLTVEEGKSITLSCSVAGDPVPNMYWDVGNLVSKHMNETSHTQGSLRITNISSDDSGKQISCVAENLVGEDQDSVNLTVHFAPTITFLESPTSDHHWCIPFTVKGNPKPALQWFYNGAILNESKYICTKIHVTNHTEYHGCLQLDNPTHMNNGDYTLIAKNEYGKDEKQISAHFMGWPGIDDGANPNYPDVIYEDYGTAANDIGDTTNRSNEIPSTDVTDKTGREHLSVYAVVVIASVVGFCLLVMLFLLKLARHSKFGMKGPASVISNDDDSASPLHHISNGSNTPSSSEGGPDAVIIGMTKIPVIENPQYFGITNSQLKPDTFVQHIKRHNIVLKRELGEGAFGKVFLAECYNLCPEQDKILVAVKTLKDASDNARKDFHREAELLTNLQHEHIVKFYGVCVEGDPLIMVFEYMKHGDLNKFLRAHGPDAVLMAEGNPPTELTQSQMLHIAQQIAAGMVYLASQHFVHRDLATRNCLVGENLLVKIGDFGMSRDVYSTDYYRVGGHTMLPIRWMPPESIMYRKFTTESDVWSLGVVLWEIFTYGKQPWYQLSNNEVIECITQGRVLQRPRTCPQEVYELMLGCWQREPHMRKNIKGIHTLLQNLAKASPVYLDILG

[2] abbreviates: TRKB selectivity, ratio of Ba/F3 IC50 values.

TRKB-wt, sequence (Q16620 538-807): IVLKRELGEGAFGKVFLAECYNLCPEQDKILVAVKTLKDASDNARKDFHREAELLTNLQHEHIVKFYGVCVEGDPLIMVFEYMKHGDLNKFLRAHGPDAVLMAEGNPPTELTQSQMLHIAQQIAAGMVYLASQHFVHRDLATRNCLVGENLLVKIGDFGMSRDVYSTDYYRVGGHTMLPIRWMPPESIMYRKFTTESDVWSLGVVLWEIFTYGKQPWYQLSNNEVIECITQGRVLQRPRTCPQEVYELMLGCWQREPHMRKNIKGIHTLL
ALK I1171N/D1203N, sequence (Q9UM73 1116-1392 I1171N/D1203N): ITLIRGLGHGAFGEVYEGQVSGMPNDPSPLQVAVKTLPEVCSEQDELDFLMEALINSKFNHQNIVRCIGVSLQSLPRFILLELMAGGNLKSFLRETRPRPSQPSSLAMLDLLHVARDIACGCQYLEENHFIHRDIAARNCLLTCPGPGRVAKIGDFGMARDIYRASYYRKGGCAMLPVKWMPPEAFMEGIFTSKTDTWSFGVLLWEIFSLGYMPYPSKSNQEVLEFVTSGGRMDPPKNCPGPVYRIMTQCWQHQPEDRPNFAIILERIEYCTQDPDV

For `C[C@H]1Oc2cc(cnc2N)-c2c(c(C(N)=O)nn2C2CCC2)Cc2cn(C)nc2-c2ccc(F)cc21` [Example 30, (R)-22-amino-3-cyclobutyl-16-fluoro-10-methyl-19-methyl-20-oxa-3,4,10,11,23-pentaazapentacyclo[19.3.1.0^2,^6.0^8,^12.0^13,^18] pentacosa-1(24),2(6),4,8,11,13,15,17,21(25),22-decaene-5-carboxamide], the Ki on ALK I1171N/D1203N was below 50 nM; on TRKB-wt, 50 to 500 nM. For the same molecule, the IC50 (commonly the concentration at which inhibition is half-maximal) in test [1] was 50 to 500 nM; on Ba/F3 ETV6-TRKB, above 500 nM. Moreover, the “ETV6-TRKB / EML4-ALK v1 I1171N/D1203N” value in test [1] (setting [2]) is reported as “B (bin B for high selectivity, ratio≥10-fold but<30)”.
Regarding `CC1CCCN1C(=O)c1nn(CC2CC2)c2c1Cc1cn(C)nc1-c1ccc(F)cc1[C@@H](C)Oc1cc-2cnc1N` (stereo partly drawn) [Example 31, {(R)-22-amino-3-(cyclopropylmethyl)-16-fluoro-10-methyl-19-methyl-20-oxa-3,4,10,11,23-pentaazapentacyclo[19.3.1.0^2,^6.0^8,^12.0^13,^18]pentacosa-1(24),2(6),4,8,11, 13,15,17,21(25),22-decaen-5-yl}(2-methyl-1-pyrrolidinyl)methanone], the Ki on ALK I1171N/D1203N is below 50 nM; at TRKB-wt it was at least 500 nM. The IC50 in test [1] was 0.1 to 50 nM; at Ba/F3 ETV6-TRKB, above 500 nM. In addition, the “ETV6-TRKB / EML4-ALK v1 I1171N/D1203N” value in test [1] (setting [2]) is “A (bin A for very high selectivity, ratio≥30-fold)”.
For `C[C@H]1Oc2cc(cnc2N)-c2c(c(C(=O)N(C)C)nn2CC2CCC2)Cc2cn(C)nc2-c2ccc(F)cc21` [Example 33, (19R)-22-amino-3-(cyclobutylmcthyl)-16-fluoro-N,N,10,19-tetramethyl-20-oxa-3,4,10,11,23-pentaazapentacyclo[19.3.1.0^2,^6.0^8,^12.0^13,^18]pentacosa-1(24),2(6),4,8,11,13,15,17,21(25),22-decaene-5-carboxamide], the Ki at ALK I1171N/D1203N is below 50 nM; at TRKB-wt it was at least 500 nM. The values for the IC50 (in test [1]; at Ba/F3 ETV6-TRKB) were 50 to 500 nM and above 500 nM, respectively. Besides, the “ETV6-TRKB / EML4-ALK v1 I1171N/D1203N” value in test [1] (setting [2]) is “A (bin A for very high selectivity, ratio≥30-fold)”.
`CON(C)C(=O)c1nn(CC2CC2)c2c1Cc1cn(C)nc1-c1ccc(F)cc1[C@@H](C)Oc1cc-2cnc1N` [Example 34, N-methoxy-N-methyl-(R)-22-amino-3-(cyclopropylmethyl)-16-fluoro-10-methyl-19-methyl-20-oxa-3,4,10,11,23-pentaazapentacyclo[19.3.1.0^2,^6.0^8,^12.0^13,^18]pentacosa-1(24),2(6),4,8,11,13,15,17,21(25),22-decaene-5-carboxamide]: the Ki at ALK I1171N/D1203N is below 50 nM; at TRKB-wt, 50 to 500 nM. The results for the IC50 (in test [1]; at Ba/F3 ETV6-TRKB) were 0.1 to 50 nM and above 500 nM, respectively. The “ETV6-TRKB / EML4-ALK v1 I1171N/D1203N” value in test [1] (setting [2]) was “B (bin B for high selectivity, ratio≥10-fold but<30)”.
With `C[C@H]1Oc2cc(cnc2N)-c2c(c(C(=O)N(C)CC(F)(F)F)nn2CC2CC2)Cc2cn(C)nc2-c2ccc(F)cc21` [Example 36, (19R)-22-amino-3-(cyclopropylmethyl)-16-fluoro-N,10,19-trimethyl-N-(2,2,2-trifluoroethyl)-20-oxa-3,4,10,11,23-pentaazapentacyclo[19.3.1.0^2,^6.0^8,^12.0^13,^18]pentacosa-1(24),2(6),4,8,11,13,15,17,21(25),22-decaene-5-carboxamide], the figures for the Ki on ALK I1171N/D1203N and on TRKB-wt were below 50 nM and at least 500 nM, respectively. The values for the IC50 (in test [1]; on Ba/F3 ETV6-TRKB) were 50 to 500 nM and above 500 nM, respectively. For the same molecule, the “ETV6-TRKB / EML4-ALK v1 I1171N/D1203N” value in test [1] (setting [2]) is reported as “A (bin A for very high selectivity, ratio≥30-fold)”.
Consider `C[C@H]1Oc2cc(cnc2N)-c2c(c(C(=O)N(C)C)nn2CC2CC2)Oc2cccnc2-c2ccc(F)cc21` [Example 39, N,N-dimethyl-(R)-23-amino-3-(cyclopropylmethyl)-17-fluoro-20-methyl-7,21-dioxa-3,4,12,24-tetraazapentacyclo[20.3.1.0^2,6.0^8,13.0^14,19]hexacosa-1(25),2(6),4,8(13),9,11,14,16,18,22(26),23-undecaene-5-carboxamide], for which the Ki was below 50 nM on ALK I1171N/D1203N and at least 500 nM on TRKB-wt. The IC50 was 0.1 to 50 nM in test [1] and above 500 nM on Ba/F3 ETV6-TRKB. In test [1] (setting [2]), the “ETV6-TRKB / EML4-ALK v1 I1171N/D1203N” value is “A (bin A for very high selectivity, ratio≥30-fold)”.
Take `C[C@H]1Oc2cc(cnc2N)-c2c(c(C(=O)N(C)C3CC3)nn2CC2CC2)Cc2cn(C)nc2-c2ccc(F)cc21` [Example 40, N-cyclopropyl-N-methyl-(R)-22-amino-3-(cyclopropylmethyl)-16-fluoro-10-methyl-19-methyl-20-oxa-3,4,10,11,23-pontaazapentacyclo[19.3.1.0^2,^6.0^8,^12.0^13,^18]pentacosa-1(24),2(6),4,8,11,13,15,17,21(25),22-decaene-5-carboxamide]: the Ki at ALK I1171N/D1203N was below 50 nM; at TRKB-wt, at least 500 nM. The IC50 in test [1] was 50 to 500 nM; on Ba/F3 ETV6-TRKB, above 500 nM. For the same molecule, the “ETV6-TRKB / EML4-ALK v1 I1171N/D1203N” value in test [1] (setting [2]) was “A (bin A for very high selectivity, ratio≥30-fold)”.
`C[C@H]1Oc2cc(cnc2N)-c2c(CC3CC3)nc(C(=O)N(C)C)n2Cc2cn(C)nc2-c2ccc(F)cc21` [Example 41, N,N-dimethyl-(R)-22-amino-3-(cyclopropylmethyl)-16-fluoro-10-methyl-19-methyl-20-oxa-4,6,10,11,23-pentaazapentacyclo[19.3.1.0^2,6.0^8,12.0^13,18]pentacosa-1(24),2,4,8,11,13,15,17,21(25),22-decaene-5-carboxamide]: the Ki is below 50 nM on ALK I1171N/D1203N and at least 500 nM on TRKB-wt. In addition, the IC50 was 0.1 to 50 nM in test [1] and above 500 nM at Ba/F3 ETV6-TRKB. Further, the “ETV6-TRKB / EML4-ALK v1 I1171N/D1203N” value in test [1] (setting [2]) was “A (bin A for very high selectivity, ratio≥30-fold)”.
For `Cc1cc2n(n1)-c1ccc(F)cc1[C@@H](C)Oc1cc(cnc1N)-c1c(c(C(=O)N(C)C)nn1CC1CC1)C2` [Example 42, N,N-dimethyl-(R)-22-amino-3-(cyclopropylmethyl)-16-fluoro-10,19-dimethyl-20-oxa-3,4,11,12,23-pentaazapentacyclo[19.3.1.0^2,^6.0^8,^12.0^13,^18]pentacosa-1(24),2(6),4,8,10,13,15,17,21(25),22-decaene-5-carboxamide], the Ki was below 50 nM at ALK I1171N/D1203N and at least 500 nM at TRKB-wt. The values for the 50% inhibitory concentration (IC50) (in test [1]; at Ba/F3 ETV6-TRKB) were 50 to 500 nM and above 500 nM, respectively. For the same molecule, the “ETV6-TRKB / EML4-ALK v1 I1171N/D1203N” value in test [1] (setting [2]) is recorded as “A (bin A for very high selectivity, ratio≥30-fold)”.
Take `CCn1nc(C(=O)N(C)C)c2c1-c1cnc(N)c(c1)O[C@H](C)c1cc(F)ccc1-c1ncccc1C2` [Example 43, N,N-dimethyl-(R)-23-amino-3-ethyl-17-fluoro-20-methyl-21-oxa-3,4,12,24-tetraazapentacyclo[20.3.1.0^2,^6.0^8,^13.0^14,^19]hexacosa-1(25),2(6),4,8(13),9,11,14,16,18,22(26),23-undecaene-5-carboxamide]: the Ki at ALK I1171N/D1203N and at TRKB-wt was below 50 nM each time. Moreover, the half-maximal inhibitory concentration (IC50) (in test [1]; on Ba/F3 ETV6-TRKB) was 0.1 to 50 nM throughout. The “ETV6-TRKB / EML4-ALK v1 I1171N/D1203N” value in test [1] (setting [2]) is on record as “B (bin B for high selectivity, ratio≥10-fold but<30)”. In addition, the “Selectivity for Ba/F3 EML4-ALK v1 I1171N-D1203N IC50 over Ba/F3 ETV6-TRKB IC50” value in test [1] (TRKB selectivity, ratio of Ba/F3 IC50 values, Table 6 bins) was “BB (bin BB for the selectivity with the ratio≥10-fold but<30)”.
Regarding `CCOC(=O)c1nn(CC2CC2)c2c1Oc1cccnc1-c1ccc(F)cc1[C@@H](C)Oc1cc-2cnc1N` [Example 55, ethyl (20R)-23-amino-3-(cyclopropylmethyl)-17-fluoro-20-methyl-7,21-dioxa-3,4,12,24-tetraazapentacyclo[20.3.1.0^2,^6.0^8,^13.0^14,^19]hexacosa-1(25),2(6),4,8(13),9,11,14,16,18,22(26),23-undecaene-5-carboxylate], the Ki is below 50 nM on ALK I1171N/D1203N and at least 500 nM at TRKB-wt. Also, the IC50 is 50 to 500 nM in test [1] and above 500 nM at Ba/F3 ETV6-TRKB. Further, the “ETV6-TRKB / EML4-ALK v1 I1171N/D1203N” value in test [1] (setting [2]) is reported as “B (bin B for high selectivity, ratio≥10-fold but<30)”.
